Columns and labels:
Experiment in all cases: Cell inhibitory activity experiment (CellTiter-Glo, 72 hours)
Assay type in all cases: cell-based
HT29 = conditions: Homo sapiens, HT-29; HT29, 72 hours
Procedure: (§1) • a) All cell lines were cultured in complete medium at 37 °C under 5% CO2. • b) Cells in logarithmic growth phase were collected and counted by a […]. The cell viability was detected by trypan blue exclusion method, and guaranteed to be over 90%. • c) The cell density was adjusted with a complete medium. Subsequently, 80 µL of cell suspension was seeded into each well of a 96-well cell culture plate according to 3000 cells per well. • d) The cells in the 96-well plate were cultured at 37°C under 5% CO2. • e) 10× drug solution was prepared. […] The working concentration of the test compound was 5 µM. For the test group, 10 µL of serially diluted test compound was transferred into the corresponding experimental well of 96-well cell culture plate, and added with 10 µL of diluent containing an equal amount of DMSO (1%), and three replicate wells were set up for each drug concentration. Control wells were added with corresponding volumes of diluent. • f) The cells in the 96-well plate added with the drug were continuously cultured at 37°C under 5% CO2 for 72 hours. • g) CTG reagent (CellTiter-Glo® Luminescent Cell Viability Assay, purchased from Promega, Cat. No. G7571) was thawed, and the cell culture plate was equilibrated to room temperature for 30 minutes. • h) 100 µL of CTG solution was added into each well. • i) The plate was shaken on an orbital shaker for 5 minutes to induce cell lysis. • j) The cell culture plate was placed at room temperature for 20 minutes to stabilize luminescent signals. • k) Luminescence intensities were read, and data were collected. • l) The data were analyzed by using GraphPad Prism 7.0 software, non-linear S-curve regression was applied to fit the data for generating dose-response curves, and IC50 values were calculated accordingly. Specific experimental results were shown in Table 4. [formula] Table 4 Cell inhibitory activities of payload compounds in the present invention

AsPC-1 = conditions: Homo sapiens, ASPC1; AsPC-1, 72 hours
Procedure: as §1

A549 = conditions: Homo sapiens; A549, 72 hours
Procedure: as §1

SK-OV-3 = conditions: Homo sapiens; SK-OV-3, 72 hours
Procedure: as §1

HCT15 = conditions: Homo sapiens, HCT-15; HCT15, 72 hours
Procedure: as §1

COLO205 = conditions: Homo sapiens, COLO 205; COLO205, 72 hours
Procedure: as §1

COLO320DM = conditions: Homo sapiens, COLO 320DM
Procedure: as §1

SMILES	IC50 (HT29)	IC50 (AsPC-1)	IC50 (A549)	IC50 (SK-OV-3)	IC50 (HCT15)	IC50 (COLO205)	IC50 (COLO320DM)
CC[C@@]1(O)C(=O)OCc2c1cc1n(c2=O)Cc2c-1nc1cc(F)c(F)cc1c2CO [C1-5, (4S)-4-ethyl-8,9-difluoro-4-hydroxy-11-(hydroxymethyl)-3,4,12,14-tetrahydro-1H-pyrano[3', 4':6,7]indolizino[1,2-b]quinolin-3,14-dione]	144 nM	1.12 µM	21.1 nM	79.5 nM	142 nM	24.3 nM	196 nM
CC[C@@]1(O)C(=O)OCc2c1cc1n(c2=O)Cc2c-1nc1cc(F)c(C)c3c1c2[C@@H](NC(=O)CO)CC3 [DXd]	344 nM	3.1 µM	104 nM	288 nM	889 nM	95.5 nM	575 nM
CCc1c2c(nc3ccc(O)cc13)-c1cc3c(c(=O)n1C2)COC(=O)[C@]3(O)CC [SN-38]	287 nM	> 10 µM	66.5 nM	168 nM	313 nM	89.6 nM	1420 nM

From EP4799647A1, “CAMPTOTHECIN DRUG CONJUGATE, AND PREPARATION METHOD THEREFOR AND USE THEREOF” (Shanghai Qilu Pharmaceutical Research and Development …, priority 2023, dated 2025)
